# In patent US20260265305A1, “POLYPEPTIDE DERIVATIVE FOR ORAL DELIVERY” (Hangzhou Sciwind Biosciences Co., Ltd., priority 2023, published 2026):
# pEC50: −log10 of the molar value. Where two headings read alike, the source gives them in different places. Numbered stars: 1 amine (or outer) side, 2 acyl side, 3 side chain; on linkers, the order of the positions; unused ones are H or OH. Peptide text beside a SMILES is read from it. * marks the point of attachment. C20 diacid = O=C(O)CCCCCCCCCCCCCCCCCCC(=O)*; βAsp = O=C(O)[C@H](CC(=O)[*:2])N[*:1]; Trx = NC[C@H]1CC[C@H](C(=O)O)CC1; AEEA = NCCOCCOCC(=O)O; Inp = O=C(O)C1CCNCC1
# Columns and labels:
# [1] = Heat accelerated stability assay of polypeptide solutions (40° C., pH about 7.4), reversed phase chromatography; assay type: physicochemical; details: for Purity change on 7 d / Purity change on 26 d: reversed phase chromatography 214 nm; for Purity change on 7 d: purity on 7 d − purity on 0 d; for Concentration change on 26 d / Purity change on 26 d: Day 26; for Purity change on 26 d: purity on 26 d − purity on 0 d
# Method in brief: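 Polypeptide derivative lyophilisate (1 mg/mL) with sodium dihydrogen phosphate (1.42 mg/mL) in water, pH about 7.4, sterile-filtered, vialed and held at 40° C; sampled on days 7 and 26. After centrifugation, concentration and purity (target/total peak area) by C18 RP-HPLC, TFA/ACN gradient, 280 and 214 nm.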
# [2] = Efficacy assay in SD rats, dose-dependent study, single subcutaneous dose; assay type: in vivo; details: Table 9
# Description: […] Food intake was the amount of food consumed by each of the animals per day.
# amylin receptor (hAMY3R) = biological target: T1, amylin receptor (hAMY3R) (Homo sapiens, UniProt O60896+P30988); assay: Amylin receptor agonism testing, CRE-luciferase assay in stably transfected CHO-K1/Ga15/AMY3 cells; assay type: cell-based; details: for pEC50: incubation of 24 hours, Table 3, read-out: EC50, activity against the amylin receptor in cells; for Fold change in activity against hAMY3R: relative to D1 as benchmark
# T1 construct: host or cells: CHO-K1/Ga15/AMY3 cells, further stably transfected with a CRE-luciferase plasmid
# T1 sequence (P30988 25-474): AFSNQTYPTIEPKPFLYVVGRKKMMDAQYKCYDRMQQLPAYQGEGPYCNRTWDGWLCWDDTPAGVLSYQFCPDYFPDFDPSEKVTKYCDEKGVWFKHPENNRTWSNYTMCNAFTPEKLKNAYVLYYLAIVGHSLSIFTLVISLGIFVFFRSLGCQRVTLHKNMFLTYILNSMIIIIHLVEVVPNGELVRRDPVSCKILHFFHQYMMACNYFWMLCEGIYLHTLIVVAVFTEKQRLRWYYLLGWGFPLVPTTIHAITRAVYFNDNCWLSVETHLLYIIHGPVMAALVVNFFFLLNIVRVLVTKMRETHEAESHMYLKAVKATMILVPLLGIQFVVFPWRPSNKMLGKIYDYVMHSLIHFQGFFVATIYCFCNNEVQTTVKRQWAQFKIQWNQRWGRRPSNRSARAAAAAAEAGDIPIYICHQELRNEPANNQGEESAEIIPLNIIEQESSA
# T1 sequence (O60896 24-148): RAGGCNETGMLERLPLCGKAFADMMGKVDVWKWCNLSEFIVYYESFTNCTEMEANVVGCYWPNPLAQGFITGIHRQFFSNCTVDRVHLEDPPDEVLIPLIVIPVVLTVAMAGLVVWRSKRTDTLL
# [3] = biological target: T2, calcitonin receptor (hCTR) (Homo sapiens, UniProt P30988); assay: Calcitonin receptor agonism, CRE-luciferase assay in stably transfected CHO-K1/CALCR/Ga15 cells; assay type: cell-based; details: for Fold change in activity against hCTR: relative to D1 as benchmark
# T2 construct: host or cells: CHO-K1/CALCR/Ga15 cells, further stably transfected with a CRE-luciferase plasmid
# T2 sequence (P30988 25-474): T1 sequence (P30988 25-474)
# Description: Using the standard protocol, CHO-K1/CALCR/Ga15 cells (purchased from GenScript, with the calcitonin receptor constructed already) were transfected with a plasmid containing a luciferase expression cassette driven by multiple copies of cAMP response elements (CREs). The cells were cultured in an F12 medium containing 200 ug/mL Zeocin, 2 ug/mL puromycin, and 100 ug/mL hygromycin to afford a stably transfected calcitonin receptor/CRE-luc cell line.
# To each well of a white 96-well plate was added 50 μL of the tested sample solution at a respective concentration.
# The stably transfected calcitonin receptor/CRE-luc CHO cells were resuspended in the growth medium at a certain density, and 50 μL of the cell suspension was added at a density of about 20,000 cells per well to the white 96-well plate containing the tested sample solution. After incubation of 24 hours at 37° C. and 5% CO2, 100 μL of a Luciferase substrate was added to each well, incubated for 3 minutes, and finally was tested for luminescence on SpectraMax L (Molecular Devices) with the software SoftMax Pro 7.0.3 GxP. A standard curve was plotted using the fluorescent intensities for calculation of EC50.
# [4] = Animal study: weight change and accumulated food intake in SD rats after subcutaneous dosing; assay type: in vivo, SD (Sprague Dawley) rats; details: 10 nmol/kg subcutaneous; for effect on body weight of SD rats: FIGS. 1 and 3; for effect on accumulated food intake of SD rats: FIGS. 2 and 4
# Description: SD (Sprague Dawley) rats weighing 200-250 g were used for this study. The rats were received at least 10-14 days before the study began such that they could accommodate to the experimental environment. After arrival, they were exposed to a reversed light/dark cycle (i.e., lights switched off in daytime and on in nighttime) for two weeks and were individually housed for the first week so as to ensure high data accuracy and test sensitivity. Throughout the acclimation and experiment period, the rats had free access to food and water. 5-8 rats were assigned to each testing group for the derivatives and were subcutaneously administered the derivatives at a dose of 10 nmol/kg or a vehicle (20 mM phosphate buffer, PB, pH 7.0), and the dosing timepoint was recorded for each group. After dosing, the rats were put back into cages where they were housed and could have access to food and water. Food consumption and weight change of the rats were recorded online or manually every 24 hours. Percent of weight change=(BWTn−BWT0)/BWT0*100%, wherein BW represented the value of body weight, and T0 and Tn represented the time point of dosing and n hours post dose respectively. Dots in the figures were represented utilizing mean±standard error of the mean (SEM).
Compound,purity decrease ([1]; Day 7 of the accelerated testing) [%],appearance (clarity) of the solution ([1]; Day 26 of the heat accelerated assay),"Purity change on 7 d ([1]; 40° C., Day 7)",24 h food intake ([2]; 30 nmol/kg single s.c. dose) [g],24 h weight change ([2]; 30 nmol/kg single s.c. dose) [%],24 h food intake ([2]; 100 nmol/kg single s.c. dose) [g],24 h weight change ([2]; 100 nmol/kg single s.c. dose) [%],pEC50 (amylin receptor (hAMY3R)),Fold change in activity against hAMY3R (amylin receptor (hAMY3R)),"pEC50 ([3]; incubation of 24 hours, Table 4, read-out: EC50, activity against the calcitonin receptor in cells)",Fold change in activity against hCTR [3],"Concentration change on 7 d ([1]; 40° C., pH about 7.4, 1 mg/mL, Day 7) [%]","Concentration change on 26 d ([1]; 40° C., pH about 7.4, 1 mg/mL)",Purity change on 26 d ([1]; 40° C.) [%],effect on body weight of SD rats [4],effect on accumulated food intake of SD rats [4],"pEC50 ([3]; Table 5 integrated analysis, read-out: hCTR EC50)"
"CC[C@H](C)[C@H](NC(=O)[C@@H]1CCCN1C(=O)CNC(=O)[C@H](Cc1ccccc1)NC(=O)[C@H](CC(N)=O)NC(=O)[C@H](CC(N)=O)NC(=O)[C@H](CO)NC(=O)[C@H](CO)NC(=O)[C@H](Cc1c[nH]cn1)NC(=O)[C@H](CCCNC(=N)N)NC(=O)[C@H](CC(C)C)NC(=O)[C@H](Cc1ccccc1)NC(=O)[C@H](CCC(=O)O)NC(=O)[C@H](C)NC(=O)[C@H](CC(C)C)NC(=O)[C@H](CCCNC(=N)N)NC(=O)[C@H](CCC(N)=O)NC(=O)[C@@H](NC(=O)[C@H](C)NC(=O)[C@@H]1CSSC[C@H](NC(=O)[C@H](CCCCN)NC(=O)CC[C@H](NC(=O)CCCCCCCCCCCCCCCCCCC(=O)O)C(=O)O)C(=O)N[C@@H](CC(N)=O)C(=O)N[C@@H]([C@@H](C)O)C(=O)N[C@@H](C)C(=O)N[C@@H]([C@@H](C)O)C(=O)N1)[C@@H](C)O)C(=O)N[C@@H](CC(C)C)C(=O)N1CCC[C@H]1C(=O)N1CCC[C@H]1C(=O)N[C@H](C(=O)N[C@@H](CC(N)=O)C(=O)N[C@H](C(=O)NCC(=O)N[C@@H](CO)C(=O)N[C@@H](CC(N)=O)C(=O)N[C@H](C(=O)N1CCC[C@H]1C(N)=O)[C@@H](C)O)C(C)C)[C@@H](C)O [D1, Cagrilintide]",12.73,foreign matters were readily observable,−12.73%,5.250,−6.416,2.100,−9.103,,,,,,,,,,
CC(C)C[C@H](NC(=O)[C@H](CCCNC(=N)N)NC(=O)CNC(=O)[C@H](CC(C)C)NC(=O)[C@@H](NC(=O)[C@H](C)NC(=O)[C@@H](NC(=O)[C@H](CO)NC(=O)[C@H](CC(C)C)NC(=O)[C@H](CCC(N)=O)NC(=O)[C@H](CO)NC(=O)[C@H](C)NC(=O)COCCOCCNC(=O)COCCOCCNC(=O)C[C@H](NC(=O)CCCCCCCCCCCCCCCCCCC(=O)O)C(=O)O)[C@@H](C)O)C(C)C)C(=O)N[C@@H](CO)C(=O)N[C@@H](CC(=O)O)C(=O)N[C@@H](CCC(=O)O)C(=O)N[C@@H](CC(C)C)C(=O)N[C@@H](Cc1c[nH]cn1)C(=O)N[C@@H](CCCNC(=N)N)C(=O)N[C@@H](CC(C)C)C(=O)N[C@@H](CCC(N)=O)C(=O)N[C@@H](CC(=O)O)C(=O)N[C@@H](Cc1ccc(O)cc1)C(=O)N1CCC[C@H]1C(=O)N[C@@H](CCCNC(=N)N)C(=O)N[C@H](C(=O)N[C@@H](CC(=O)O)C(=O)N[C@H](C(=O)NCC(=O)N[C@@H](CO)C(=O)NCC(=O)N[C@@H](CO)C(=O)N1CCC[C@H]1C(N)=O)C(C)C)[C@@H](C)O [M25] ({C20 diacid-βAsp-AEEA-AEEA}-ASQLSTAVLGRLSDELHRLQDYPRTDVGSGSP-NH2),,,−2.45%,,,,,10.77,2.118,9.86,0.623,−1.222,−2.645%,−5.24,apparently further reduced,apparently further reduced,
CC(C)C[C@H](NC(=O)[C@H](CCCNC(=N)N)NC(=O)CNC(=O)[C@H](CC(C)C)NC(=O)[C@@H](NC(=O)[C@H](C)NC(=O)[C@@H](NC(=O)[C@H](CO)NC(=O)[C@H](CC(C)C)NC(=O)[C@H](CCC(N)=O)NC(=O)[C@H](CO)NC(=O)[C@H](C)NC(=O)COCCOCCNC(=O)COCCOCCNC(=O)[C@H]1CC[C@H](CNC(=O)CCCCCCCCCCCCCCCCCCC(=O)O)CC1)[C@@H](C)O)C(C)C)C(=O)N[C@@H](CO)C(=O)N[C@@H](CC(=O)O)C(=O)N[C@@H](CCC(=O)O)C(=O)N[C@@H](CC(C)C)C(=O)N[C@@H](Cc1c[nH]cn1)C(=O)N[C@@H](CCCNC(=N)N)C(=O)N[C@@H](CC(C)C)C(=O)N[C@@H](CCC(N)=O)C(=O)N[C@@H](CC(=O)O)C(=O)N[C@@H](Cc1ccc(O)cc1)C(=O)N1CCC[C@H]1C(=O)N[C@@H](CCCNC(=N)N)C(=O)N[C@H](C(=O)N[C@@H](CC(=O)O)C(=O)N[C@H](C(=O)NCC(=O)N[C@@H](CO)C(=O)NCC(=O)N[C@@H](CO)C(=O)N1CCC[C@H]1C(N)=O)C(C)C)[C@@H](C)O [M27] ({C20 diacid-Trx-AEEA-AEEA}-ASQLSTAVLGRLSDELHRLQDYPRTDVGSGSP-NH2),,,No change,,,,,,9.000,,0.161,,−2.286%,−1.27,apparently further reduced,apparently further reduced,
CC(C)C[C@H](NC(=O)[C@H](CCCNC(=N)N)NC(=O)CNC(=O)[C@H](CC(C)C)NC(=O)[C@@H](NC(=O)[C@H](C)NC(=O)[C@@H](NC(=O)[C@H](CO)NC(=O)[C@H](CC(C)C)NC(=O)[C@H](CCC(N)=O)NC(=O)[C@H](CO)NC(=O)[C@H](C)NC(=O)COCCOCCNC(=O)COCCOCCNC(=O)C1CCN(C(=O)CCCCCCCCCCCCCCCCCCC(=O)O)CC1)[C@@H](C)O)C(C)C)C(=O)N[C@@H](CO)C(=O)N[C@@H](CC(=O)O)C(=O)N[C@@H](CCC(=O)O)C(=O)N[C@@H](CC(C)C)C(=O)N[C@@H](Cc1c[nH]cn1)C(=O)N[C@@H](CCCNC(=N)N)C(=O)N[C@@H](CC(C)C)C(=O)N[C@@H](CCC(N)=O)C(=O)N[C@@H](CC(=O)O)C(=O)N[C@@H](Cc1ccc(O)cc1)C(=O)N1CCC[C@H]1C(=O)N[C@@H](CCCNC(=N)N)C(=O)N[C@H](C(=O)N[C@@H](CC(=O)O)C(=O)N[C@H](C(=O)NCC(=O)N[C@@H](CO)C(=O)NCC(=O)N[C@@H](CO)C(=O)N1CCC[C@H]1C(N)=O)C(C)C)[C@@H](C)O [M29] ({C20 diacid-Inp-AEEA-AEEA}-ASQLSTAVLGRLSDELHRLQDYPRTDVGSGSP-NH2),,,No change,,,,,11.22,6.000,,0.551,,No change (concentration change of less than 1% (denoted as “no change”)),−1.2,apparently further reduced,apparently further reduced,9.81
